Experimental data as given in patent EP0998923A1, “Use of 5-HT7 receptor agonists for the treatment or prophylaxis of ischemias” (BASF AKTIENGESELLSCHAFT, priority 1998, dated 2000).

Legend:
male Long Evans rats = assay: Permanent distal middle cerebral artery (MCA) occlusion, rat model of experimental stroke; assay type: in vivo
Experimental: The experiments were carried out in male Long Evans rats. Under halothane anesthesia supplemented with nitrous oxide, the right middle cerebral artery (MCA) was dissected and permanently ligated at a distal position as described in the literature. The outcome of the experiments was quantified by determining the resulting infarct volume 22 hours after MCA occlusion.
In the first series of experiments, animals were treated with 2 mg/kg R(+)-8-OH-DPAT i.v. followed by a maintenance infusion of 1 mg/kg/h R(+)-8-OH-DPAT i.v. Drug administration was started 90 min after MCA occlusion. In the second series of experiments, rats were pretreated with 2.14 mg/kg/h WAY 100,635 i.p., started 2 hours before MCA occlusion; administration of R(+)-8-OH-DPAT was subsequently performed as in the first study. Accordingly, in the second series a total dose of 2.14 mg/kg/h of WAY 100,635 had been administered for 3.5 h (total dosage = 7.49 mg/kg) before treatment with the agonist R(+)-8-OH-DPAT commenced. The blockade of 5-HT1A receptors under these conditions was confirmed by the complete lack of stereotyped behavior observed in animals treated with R(+)-8-OH-DPAT […]. Under the conditions of the second series, any pharmacological effect of R(+)-8-OH-DPAT treatment are mediated by the 5-HT7 receptor.
The experiments were carried out under the same conditions as described in Example 1,
A preferred 5-HT7 receptor agonist is 1-[3-[4-[3-(trifluoromethyl)-phenyl]-piperazine-1-yl]-propyl]-3-hydroxy-1H-pyridine-2-on (= Compound A), a compound which can be prepared as discribed in example 3. The 5-HT7 agonist Compound A was administered as an intravenous bolus followed by a maintenance infusion.

5-HT7 receptor = 5-HT7 receptor (Homo sapiens, UniProt P34969); assay: Affinity to the 5-HT7 receptor; assay type: binding
Chain of 5-HT7 receptor (P34969 whole entry): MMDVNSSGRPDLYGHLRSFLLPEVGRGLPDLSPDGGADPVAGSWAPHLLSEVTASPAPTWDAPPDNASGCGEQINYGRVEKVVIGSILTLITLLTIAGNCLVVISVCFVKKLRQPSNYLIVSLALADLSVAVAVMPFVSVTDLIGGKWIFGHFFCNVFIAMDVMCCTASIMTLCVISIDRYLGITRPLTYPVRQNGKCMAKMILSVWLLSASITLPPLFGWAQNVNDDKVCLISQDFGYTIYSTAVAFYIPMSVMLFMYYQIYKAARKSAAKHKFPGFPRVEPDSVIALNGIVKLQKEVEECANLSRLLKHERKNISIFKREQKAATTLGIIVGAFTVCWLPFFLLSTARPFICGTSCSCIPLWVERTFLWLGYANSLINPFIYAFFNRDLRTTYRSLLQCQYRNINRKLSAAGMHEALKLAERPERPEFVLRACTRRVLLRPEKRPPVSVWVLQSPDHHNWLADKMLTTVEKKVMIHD
Text: (§1) The affinity of a compound to a human 5-HT receptor can be measured and calculated easily by methods known to a skilled person.

5-HT1A receptor = target: T1, 5-HT1A receptor (Homo sapiens, UniProt P08908); assay: Affinity to the 5-HT1A receptor; assay type: binding
T1 sequence (P08908 1-422): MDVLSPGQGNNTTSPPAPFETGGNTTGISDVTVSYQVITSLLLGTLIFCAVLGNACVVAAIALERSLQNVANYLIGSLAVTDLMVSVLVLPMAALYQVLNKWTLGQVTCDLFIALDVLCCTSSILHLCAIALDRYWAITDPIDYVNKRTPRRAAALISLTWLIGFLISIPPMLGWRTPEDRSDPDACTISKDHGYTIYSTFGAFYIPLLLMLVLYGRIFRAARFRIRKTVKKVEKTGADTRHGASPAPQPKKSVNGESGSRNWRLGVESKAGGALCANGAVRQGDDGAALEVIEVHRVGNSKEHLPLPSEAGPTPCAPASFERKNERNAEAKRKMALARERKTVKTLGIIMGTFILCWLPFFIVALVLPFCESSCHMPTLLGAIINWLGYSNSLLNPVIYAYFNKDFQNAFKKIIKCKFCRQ
Text: as §1

Compound | Stereotyped behavior (male Long Evans rats; Example 2: dose 4+2 mg/kg + mg/kg/h i.v.) | Infarct volume, % of control, mean ± SD, (n) Treatment (male Long Evans rats; Example 2: dose 4+2 mg/kg + mg/kg/h i.v. (bolus + maintenance infusion), same conditions as Example 1) | Ki (5-HT7 receptor) | selectivity for the 5-HT7 receptor (5-HT7 receptor; 5-HT7 over 5-HT1A (ratio of Ki values)) | Ki (5-HT1A receptor) | Infarct volume, % of control, mean ± SD, (n) Treatment (male Long Evans rats; Example 1: 2 mg/kg R(+)-8-OH-DPAT i.v. + 1 mg/kg/h i.v. infusion, started 90 min after MCA occlusion, combination: pretreated with 2.14 mg/kg/h WAY 100,635 i.p. from 2 hours before occlusion, infarct volume 22 hours after occlusion) | Stereotyped behavior (male Long Evans rats; Example 1: same dosing as for infarct volume, with or without WAY 100,635 pretreatment) | reduction of infarct volume (male Long Evans rats; Example 1: versus placebo, 22 hours after MCA occlusion)
O=c1c(O)cccn1CCCN1CCN(c2cccc(C(F)(F)F)c2)CC1 [Compound A, 1-[3-[4-[3-(trifluoromethyl)-phenyl]-piperazine-1-yl]-propyl]-3-hydroxy-1H-pyridine-2-on] | No | 78±23(10) % of control | 7 nM | approximately 19 fold | 130 nM |  |  | 
CCCN(CCC)C1CCc2cccc(O)c2C1 (stereo not drawn) [R(+)-8-OH-DPAT, 8-hydroxy-di-n-propylamino tetralin] |  |  |  |  |  | 72±32(12) % of control | Yes | 28%
